Reference: US4783443A, “Amino acyl cephalosporin derivatives” (The University of Chicago, priority 1986, dated 1988)
Converted amounts (≈) assume the structure as drawn. Read-outs that look alike come from different tables or passages of the source.

What was measured:
[1] = system: Gram-negative and -positive bacteria; assay: Antibacterial activity, general trends of the MIC panel of Table I; format: cell-based; conditions: for sensitivity observed: H. influenzae 487, all of the S. aureus strains
Excerpt: (§1) The antibacterial effects of compounds of the invention have been assessed by determination of the minimum inhibitory concentration (M.I.C.) value against a variety of Gram-negative and -positive bacteria. The microbial susceptibility data for four compounds, together with those for the antibacterial dipeptide beta-Cl-LAla-beta-Cl-LAla, are given in Table I.

Corynebacterium JKR-2285 = assay: Minimum inhibitory concentration (MIC); format: cell-based; conditions: JKR2285; Corynebacterium JKR-2285; resistant to cephalothin; read-out: Minimum Inhibitory Concentration
Excerpt: as §1
(§2) in uM to facilitate a meaningful comparison of the approximate MICs among
(§3) the tested compounds; an appreciation of the MIC values in ug/mL can be
(§4) obtained by multiplying each value (μM) by 0.55
(§5) ^(j) Resistant to cephalothin (MIC >200 uM);

Escherichia coli Ceph^R = assay: Minimum inhibitory concentration (MIC); format: cell-based; conditions: Escherichia coli, read-out: Minimum Inhibitory Concentration
Excerpt: as §1, §2, §3, §4, §5

Corynebacterium JKM-4754 = assay: Minimum inhibitory concentration (MIC); format: cell-based; conditions: JKM4754; Corynebacterium JKM-4754; resistant to cephalothin; read-out: Minimum Inhibitory Concentration
Excerpt: as §1, §2, §3, §4, §5

Serratia marcescens = assay: Minimum inhibitory concentration (MIC); format: cell-based; conditions: Gram-negative
Excerpt: as §1, §2, §3, §4

[2] = system: Staphylococcus aureus H-2690-8^R; assay: Minimum inhibitory concentration (MIC); format: cell-based; conditions: possesses a betalactamase
Excerpt: as §1, §2, §3, §4

[3] = system: Hemophilus influenzae 238; assay: Minimum inhibitory concentration (MIC); format: cell-based; conditions: Haemophilus influenzae
Excerpt: as §1, §2, §3, §4

Shigella flexneri = assay: Minimum inhibitory concentration (MIC); format: cell-based; conditions: Gram-negative
Excerpt: as §1, §2, §3, §4

Klebsiella pneumoniae = assay: Minimum inhibitory concentration (MIC); format: cell-based; conditions: Gram-negative
Excerpt: as §1, §2, §3, §4

Enterobacter areogenes = assay: Minimum inhibitory concentration (MIC); format: cell-based; conditions: Gram-negative
Excerpt: as §1, §2, §3, §4

[4] = system: Staphylococcus aureus PSL-14 Pen^R; assay: Minimum inhibitory concentration (MIC); format: cell-based; conditions: possesses a betalactamase
Excerpt: as §1, §2, §3, §4

[5] = system: Staphylococcus aureus PSL-15 Pen^R; assay: Minimum inhibitory concentration (MIC); format: cell-based; conditions: possesses a betalactamase
Excerpt: as §1, §2, §3, §4

[6] = system: Staphylococcus aureus PSL-13 Pen^R; assay: Minimum inhibitory concentration (MIC); format: cell-based; conditions: possesses a betalactamase
Excerpt: as §1, §2, §3, §4

Psuedomonas aeruginosa = assay: Minimum inhibitory concentration (MIC); format: cell-based; conditions: Gram-negative
Excerpt: as §1, §2, §3, §4

Streptococcus faecalis = assay: Minimum inhibitory concentration (MIC); format: cell-based; conditions: Enterococcus faecalis, read-out: Minimum Inhibitory Concentration
Excerpt: as §1, §2, §3, §4

[7] = system: Staphylococcus aureus PSL-16 Pen^R; assay: Minimum inhibitory concentration (MIC); format: cell-based; conditions: possesses a betalactamase
Excerpt: as §1, §2, §3, §4

[8] = system: Staphylococcus aureus T-4624-8 Pen^R; assay: Minimum inhibitory concentration (MIC); format: cell-based; conditions: possesses a betalactamase
Excerpt: as §1, §2, §3, §4

[9] = system: Hemophilus influenzae 487; assay: Minimum inhibitory concentration (MIC); format: cell-based; conditions: Haemophilus influenzae, possesses a betalactamase
Excerpt: as §1, §2, §3, §4

[10] = system: Salmonella typhimurium LT 2; assay: Minimum inhibitory concentration (MIC); format: cell-based; conditions: Salmonella enterica, Gram-negative
Excerpt: as §1, §2, §3, §4

Salmonella typhimurium = assay: Minimum inhibitory concentration (MIC); format: cell-based; conditions: Salmonella enterica, Gram-negative
Excerpt: as §1, §2, §3, §4

Streptococcus agalactiae = assay: Minimum inhibitory concentration (MIC); format: cell-based; conditions: Gram positive
Excerpt: as §1, §2, §3, §4

Morganella morganii = assay: Minimum inhibitory concentration (MIC); format: cell-based; conditions: Gram-negative
Excerpt: as §1, §2, §3, §4

Enterobacter cloacae = assay: Minimum inhibitory concentration (MIC); format: cell-based; conditions: read-out: Minimum Inhibitory Concentration
Excerpt: as §1, §2, §3, §4

Escherichia coli CR = assay: Minimum inhibitory concentration (MIC); format: cell-based; conditions: read-out: Minimum Inhibitory Concentration
Excerpt: as §1, §2, §3, §4

Escherichia coli DB4548 = assay: Minimum inhibitory concentration (MIC); format: cell-based
Excerpt: as §1, §2, §3, §4

[11] = system: Hemophilus influenzae 236; assay: Minimum inhibitory concentration (MIC); format: cell-based; conditions: Haemophilus influenzae
Excerpt: as §1, §2, §3, §4

Escherichia coli JSR-O = assay: Minimum inhibitory concentration (MIC); format: cell-based; conditions: read-out: Minimum Inhibitory Concentration
Excerpt: as §1, §2, §3, §4

[12] = system: Escherichia coli JSR-O Cl-Pep^R; assay: Minimum inhibitory concentration (MIC); format: cell-based; conditions: Escherichia coli, read-out: Minimum Inhibitory Concentration
Excerpt: as §1, §2, §3, §4
^(g) This ia an E. coli JSRO strain selected for resistance to the
A comparison of the data for E. coli strains JSR-O and JSR-O Cl-Pep^R is of special interest. E. coli Cl-Pep^R is an E. coli JSR-O mutant which was selected for resistance to the dipeptide (f). […] Note that the MIC values for (d) and (e) against E. coli Cl-Pep^R (100 and 50 μM, respectively) are quite similar.

[13] = system: Staphylococcus epidermidis (P^R M^R); assay: Minimum inhibitory concentration (MIC); format: cell-based; conditions: no strain number
Excerpt: as §1, §2, §3, §4
(§6) ^(k) P and M refer to penicillin and methicillin, respectively.

[14] = system: Staphylococcus epidermidis MO1554(P^S M^S); assay: Minimum inhibitory concentration (MIC); format: cell-based; conditions: Staphylococcus epidermidis MO1554 (penicillin- and methicillin-sensitive, P^S M^S)
Excerpt: as §1, §2, §3, §4, §6

[15] = system: Staphylococcus epidermidis 1239(P^R M^R); assay: Minimum inhibitory concentration (MIC); format: cell-based
Excerpt: as §1, §2, §3, §4, §6

[16] = biological target: E. coli TEM beta-lactamase (Escherichia coli, UniProt P62593); assay: Kinetics of enzymatic turnover by E. coli TEM beta-lactamase; format: biochemical
Description: Escherichi coli TEM beta-lactamase was purchased from Applied Microbiology and Research, Porton Down, U.K. L-Alanyl-L-alanine was purchase from Sigma; N-BOC-LAla-LAla and N-BOC-beta-Cl-LAla-beta-Cl-LAla were prepared as described previously. Cheung et al supra. All other reagents were of the best grade commercially available.
Kinetic Constants for the Reactions of E. coli TEM beta-Lactamase with Cephalothin and the Cephalosporin Peptide Esters 7 and 17.

[17] = system: Escherichia coli JSR-O pBR322; assay: Minimum inhibitory concentration (MIC); format: cell-based; conditions: read-out: Minimum Inhibitory Concentration
Excerpt: as §1, §2, §3, §4
^(i) Contains the plasmid gene encoding the TEM betalactamase.

[18] = E. cloacae, all of the susceptible E. coli strains
[19] = Streptococcus faecalis, Gram positive
[20] = Escherichia coli JSR-O, parental strain

E. coli TEM beta-lactamase, sequence (P62593 24-286 limits assumed): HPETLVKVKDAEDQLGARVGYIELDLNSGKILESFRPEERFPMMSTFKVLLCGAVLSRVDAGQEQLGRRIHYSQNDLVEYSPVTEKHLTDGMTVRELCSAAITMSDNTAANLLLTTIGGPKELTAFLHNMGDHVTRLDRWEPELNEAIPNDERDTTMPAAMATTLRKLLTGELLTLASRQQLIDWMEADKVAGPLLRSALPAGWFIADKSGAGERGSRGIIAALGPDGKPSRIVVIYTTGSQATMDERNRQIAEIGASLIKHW

| Compound | sensitivity observed [1, 18] | MIC (Corynebacterium JKR-2285) [µM] | MIC (Escherichia coli Ceph^R) [µM] | MIC (Corynebacterium JKM-4754) [µM] | MIC (Serratia marcescens) [µM] | MIC [2] [µM] | MIC [3] [µM] | MIC (Shigella flexneri) [µM] | MIC (Klebsiella pneumoniae) [µM] | MIC (Enterobacter areogenes) [µM] | MIC [4] [µM] | MIC [5] [µM] | MIC [6] [µM] | MIC (Psuedomonas aeruginosa) [µM] | MIC [7] [µM] | MIC [8] [µM] | MIC [9] [µM] | MIC [10] [µM] | MIC (Salmonella typhimurium) [µM] | MIC (Streptococcus agalactiae) [µM] | also measured |
| --- | --- | --- | --- | --- | --- | --- | --- | --- | --- | --- | --- | --- | --- | --- | --- | --- | --- | --- | --- | --- | --- |
| N[C@@H](CCl)C(=O)OCC1=C(C(=O)O)N2C(=O)[C@@H](NC(=O)Cc3cccs3)[C@H]2SC1 [(c), 7-beta-(2-thienylacetamido)-3(beta-chloro-L-alanyloxymethyl)-3-cephem-4-carboxylic acid] | sensitivity was observed | > 200 | > 200 | > 200 | > 200 | 6.25 (≈ 2.87 µg/mL) | ≤ 0.78 | 100 (≈ 46 µg/mL) | > 200 | > 200 | 25 (≈ 11.5 µg/mL) | 12.5 (≈ 5.75 µg/mL) | 25 (≈ 11.5 µg/mL) | > 200 | 255 (≈ 117 µg/mL) | 6.25 (≈ 2.87 µg/mL) | 25 (≈ 11.5 µg/mL) | 25 (≈ 11.5 µg/mL) | 100 (≈ 46 µg/mL) | ≤ 0.78 | MIC (Streptococcus faecalis; [19]): 200 µM (≈ 92 µg/mL); MIC (Morganella morganii): 100 µM (≈ 46 µg/mL); MIC (Enterobacter cloacae; Gram-negative): 100 µM (≈ 46 µg/mL); MIC (Escherichia coli CR; Escherichia coli CR): 50 µM (≈ 23 µg/mL); MIC (Escherichia coli DB4548): 50 µM (≈ 23 µg/mL); MIC [11]: 25 µM (≈ 11.5 µg/mL); MIC (Escherichia coli JSR-O; [20]): 100 µM (≈ 46 µg/mL); MIC [12]: > 200 µM; MIC [13]: ≤ 0.78 µM; MIC [14]: ≤ 0.78 µM; MIC [15]: ≤ 0.78 µM |
| N[C@@H](CCl)C(=O)N[C@@H](CCl)C(=O)OCC1=C(C(=O)O)N2C(=O)[C@@H](NC(=O)Cc3cccs3)[C@H]2SC1 [(e), 7-beta-(2-thienylacetamido)-3-(beta-chloro-L-alanyl-beta-chloro-L-alanyloxymethyl)-3-cephem-4-carboxylate] | sensitivity was observed | 3.12 (≈ 1.76 µg/mL) | 12.5 (≈ 7.07 µg/mL) | 3.12 (≈ 1.76 µg/mL) | > 200 | ≤ 0.78 | ≤ 0.78 | 50 (≈ 28.3 µg/mL) | > 200 | 200 (≈ 113 µg/mL) | 1.56 (≈ 0.882 µg/mL) | 1.56 (≈ 0.882 µg/mL) | ≤ 0.78 | > 200 | 1.56 (≈ 0.882 µg/mL) | ≤ 0.78 | 3.12 (≈ 1.76 µg/mL) | 25 (≈ 14.1 µg/mL) | 50 (≈ 28.3 µg/mL) | ≤ 0.78 | detectable activity among the cephalosporins ([1]; E. cloacae, all of the susceptible E. coli strains, Corynebacterium strains, S. faecalis): the only cephalosporin with detectable activity; insensitivity / resistance ([1]; P. aeruginosa, S. marcescens and K. pneumoniae): resistant; sensitivity ([1]; S. aureus strains, Corynebacterium JK strains, S. faecalis, H. influenzae 487, E. coli JSR-O and E. cloacae): sensitive; antimicrobial potency compared with the other cephalosporins ([1]; Table I, all strains): by-and-large a more potent antimicrobial agent than the other three cephalosporins (b), (c) and (d); antibiotic potency of (e) versus amino acid ester (c) ([1]; strains sensitive to both (c) and (e)): invariably more potent an antibiotic than is the amino acid ester (c); Vmax compared with cephalothin [16]: substantially greater than that obtained for cephalothin; substrate for the lactamase [16]: found to be substrates for the E. coli TEM beta-lactamase; binding to the lactamase (KM approximating KS) ([16]; effect of the C10-dipeptidyl substituent): do not compromise the binding of the cephalosporin nucleus to the lactamase; MIC [17]: 6.25 µM (≈ 3.53 µg/mL); MIC (Streptococcus faecalis): 12.5 µM (≈ 7.07 µg/mL); MIC (Morganella morganii): 50 µM (≈ 28.3 µg/mL); MIC (Enterobacter cloacae): 12.5 µM (≈ 7.07 µg/mL); MIC (Escherichia coli CR; Escherichia coli): 12.5 µM (≈ 7.07 µg/mL); MIC (Escherichia coli DB4548): 6.25 µM (≈ 3.53 µg/mL); MIC [11]: 25 µM (≈ 14.1 µg/mL); MIC (Escherichia coli JSR-O; Escherichia coli): 12.5 µM (≈ 7.07 µg/mL); MIC [12]: 50 µM (≈ 28.3 µg/mL); MIC [13]: ≤ 0.78 µM; MIC [14]: ≤ 0.78 µM; MIC [15]: ≤ 0.78 µM |
| C[C@H](N)C(=O)OCC1=C(C(=O)O)N2C(=O)[C@@H](NC(=O)Cc3cccs3)[C@H]2SC1 [(b), 7-beta-(2-thienylacetamido)-3-(L-alanyloxymethyl)-3-cephem-4-carboxylic acid] | no activity was seen | > 200 | > 200 | > 200 | > 200 | 100 (≈ 42.5 µg/mL) | ≤ 0.78 | 100 (≈ 42.5 µg/mL) | > 200 | > 200 | > 200 | 100 (≈ 42.5 µg/mL) | 200 (≈ 85.1 µg/mL) | > 200 | > 200 | 100 (≈ 42.5 µg/mL) | 50 (≈ 21.3 µg/mL) | 50 (≈ 21.3 µg/mL) | > 200 | ≤ 0.78 | MIC [17]: 50 µM (≈ 21.3 µg/mL); MIC (Streptococcus faecalis; [19]): > 100 µM; MIC (Morganella morganii): 100 µM (≈ 42.5 µg/mL); MIC (Enterobacter cloacae; Gram-negative): > 200 µM; MIC (Escherichia coli CR; Escherichia coli CR): 100 µM (≈ 42.5 µg/mL); MIC (Escherichia coli DB4548): 50 µM (≈ 21.3 µg/mL); MIC [11]: 50 µM (≈ 21.3 µg/mL); MIC (Escherichia coli JSR-O; [20]): 100 µM (≈ 42.5 µg/mL); MIC [12]: > 200 µM; MIC [13]: 1.56 µM (≈ 0.664 µg/mL); MIC [14]: ≤ 0.78 µM; MIC [15]: ≤ 0.78 µM |
